Assay results: article PMC12851007 (Angewandte Chemie (International Ed. in English), 2025)
Where a SMILES comes first, the peptide text is derived from it.

Legend:
[1] = Dual-channel assay, CF channel, POPC/POPS vesicles; assay type: biochemical; details: 12.5 µM POPC/POPS(9:1)⸧CX4/LCG-LUVs and 12.5 µM POPC/POPS(9:1)⸧CF-LUVs in 10 mM Hepes, 175 mM glucose, pH 7.5; error = SD of fit, n = 1
From the text: (§1) Ultimately, we have also tested the new conditions with vesicles containing the anionic lipid 1‐palmitoyl‐2‐oleoyl‐phosphatidylserine (POPS) with TP10, Pep‐1, and the LRLLRW peptide (Figures S41–S43 and Table S11). The results confirmed that the absolute activity as well as the difference between the CF dye efflux assay and the tandem membrane assay was nearly unaffected by the presence of 10% POPS with the only exception that the membrane‐translocating ability of TP10 was enhanced.
(§2) Assay protocol. An appropriate volume of the liposome stock solutions was diluted to 2 mL with outside buffer in a 10 ×10 mm quartz glass cuvette to afford a phospholipid concentration of 25 µM. The cuvette was placed into a thermostatted fluorimeter sample holder and gentl y stirred at 300 rpm at (25.0± 0.1) °C. Subsequentl y, the time-dependent change in fluorescence intensity (C F: λ exc = 492 nm, λ em = 517 nm) was recorded during addition of 20 µL peptide stock solution of var ying concentrations at 60 s and 20µ L of a calibration cocktail (1. 6% […]
Time-dep endent fluores cence intensit y traces, I (t), were subsequentl y normalized to fractional intensities, If(t), using equation (1) and the concentration- dependent fractional intensities just before the addition of th e calibration co cktail, I f, w ere then normaliz ed to fr actional membran e activities, Y, using equation (2). […]
Vesicles w ere prep ared a s described abov e (se e en try (4) in Table S2 and entry (3) in Table S3) and eluted with freshl y prepared 10 mM Hepes, 175mM glucos e, pH 7.5 i n the size exclusion chromatograph y. […] The fluorescence intensity w as simultaneous l y r eco rded in the CF chann el ( λ exc = 525 nm, λ em = 545 nm) and in the LCG channel ( λ exc = 369 nm, λ em = 475 nm) with an ex citation slit width of 5 nm and an emission slit width of 5 n m during addition of 20 µL peptide stock solution of varying concentrations at 60 s and 20 µL of a calibration

[2] = Dual-channel assay, CX4/LCG channel, POPC/POPS vesicles; assay type: in vitro ADME; details: 12.5 µM POPC/POPS(9:1)⸧CX4/LCG-LUVs and 12.5 µM POPC/POPS(9:1)⸧CF-LUVs in 10 mM Hepes, 175 mM glucose, pH 7.5; error = SD of fit, n = 1
From the text: as §1, §2
Time-dep endent fluores cence intensit y traces, I (t), were subsequentl y normalized to fractional intensities, If(t), using equation (1) and the concentration- dependent fractional intensities just before the addition of th e calibration co cktail, I f, w ere then normaliz ed to fr actional membran e activities, Y, using equation (2). The fractional membrane activities, Y, were subsequently plotted against the peptide concentration, c, and anal ysed using the Hill equation (3) to obtain the effective molar concentration, EC 50, and the Hill coefficient, n. For peptides with too low activity to determine Y max ex perimentall y, Y max was fixed at 1.0 during fitting. […]
Dual-Channel Measurements
Vesicles w ere prep ared a s described abov e (se e en try (4) in Table S2 and entry (3) in Table S3) and eluted with freshl y prepared 10 mM Hepes, 175mM glucos e, pH 7.5 i n the size exclusion chromatograph y. For the measurements, an approp riate volume o f the liposome stock solutions was diluted to 2m L in a 10× 10 mm PS cuvette wi th 10 mM Hep es bu ffer and 175 mM glucos e at pH 7.5 to afford 12.5µM POPC ⊃CX4/LCG-LUVs and 12.5 µM POPC⊃CF-LUVs (25 µM POPC total). The cuvette was placed into a thermostatted fluorimeter sample holder at 25.0 °C and gentl y stirred at 300 rpm. The fluorescence intensity w as simultaneous l y r eco rded in the CF chann el ( λ exc = 525 nm, λ em = 545 nm) and in the LCG channel ( λ exc = 369 nm, λ em = 475 nm) with an ex citation slit width of 5 nm and an emission slit width of 5 n m during addition of 20 µL peptide stock solution of varying concentrations at 60 s and 20 µL of a calibration

SMILES: CC(C)C[C@H](NC(=O)[C@H](CC(C)C)NC(=O)[C@H](CCCNC(=N)N)NC(=O)[C@@H](N)CC(C)C)C(=O)N[C@@H](CCCNC(=N)N)C(=O)N[C@@H](Cc1c[nH]c2ccccc12)C(N)=O [LRLLRW] (H-LRLLRW-NH2)
- EC50 [1]: 28 ± 10 µM
- EC50 [2]: 9 ± 1.6 µM

SMILES: CC(C)[C@H](NC(=O)[C@H](CCCCN)NC(=O)[C@H](CCCNC(=N)N)NC(=O)[C@H](CCCCN)NC(=O)[C@H](CCCCN)NC(=O)[C@H](CCCCN)NC(=O)[C@@H]1CCCN1C(=O)[C@H](CCC(N)=O)NC(=O)[C@H](CO)NC(=O)[C@H](Cc1c[nH]c2ccccc12)NC(=O)[C@H](CC(=O)O)NC(=O)[C@@H](NC(=O)[C@H](Cc1c[nH]c2ccccc12)NC(=O)[C@H](Cc1c[nH]c2ccccc12)NC(=O)[C@@H](NC(=O)[C@H](CC(=O)O)NC(=O)[C@H](Cc1c[nH]c2ccccc12)NC(=O)[C@H](Cc1c[nH]c2ccccc12)NC(=O)[C@@H](NC(=O)[C@H](CC(=O)O)NC(=O)[C@@H](N)CCCCN)[C@@H](C)O)[C@@H](C)O)[C@@H](C)O)C(=O)O [Pep‐1] (H-KDTWWDTWWTDWSQPKKKRKV-OH)
- EC50 [1]: 698 ± 55 µM
- EC50 [2]: 5.3 ± 0.66 µM

SMILES: CC[C@H](C)[C@H](NC(=O)[C@H](CCCCN)NC(=O)[C@H](CCCCN)NC(=O)[C@H](C)NC(=O)[C@H](CC(C)C)NC(=O)[C@H](C)NC(=O)[C@H](C)NC(=O)[C@H](CC(C)C)NC(=O)[C@H](C)NC(=O)[C@H](CCCCN)NC(=O)[C@H](CC(C)C)NC(=O)[C@H](CC(N)=O)NC(=O)[C@@H](NC(=O)[C@H](CCCCN)NC(=O)CNC(=O)[C@H](CC(C)C)NC(=O)[C@H](CC(C)C)NC(=O)[C@H](Cc1ccc(O)cc1)NC(=O)CNC(=O)[C@H](C)N)[C@@H](C)CC)C(=O)N[C@@H](CC(C)C)C(=O)O [TP10]
- EC50 [1]: 0.027 ± 0.002 µM
- EC50 [2]: 0.076 ± 0.01 µM
- EC50, dual-channel assay, CX4/LCG channel, POPC/POPS [2]: enhanced
